# Measurements published in article PMC7770833, “Design, Synthesis, and Biological Evaluation of a Series of Oxazolone Carboxamides as a Novel Class of Acid Ceramidase Inhibitors” (Journal of Medicinal Chemistry, 2020).
# Counter-ions that a name gives are not always drawn.
# Test system: not listed separately
# Test: Aqueous kinetic solubility assay
# Assay type: physicochemical
# Conditions: PBS pH 7.4
# Experimental: The aqueous kinetic solubility was determined from a 10 mM CH3CN stock solution of the test compound in PBS at pH 7.4. The study was performed by the incubation of an aliquot of 10 mM CH3CN stock solution in PBS (pH 7.4) at a target concentration of 250 μM. The incubation was carried out under shaking at 25 °C for 1 h, followed by centrifugation at 21 100 × g for 30 min. The supernatant was analyzed by UPLC/MS for the quantification of the dissolved compound (in μM) by UV at a specific wavelength (215 nm). […] The UPLC/MS analyses were performed on a Waters Acquity UPLC/MS system consisting of SQDMS equipped with an ESI interface and a PDA detector. The PDA range was 210–400 nm. ESI in positive mode was used in the mass scan range 100–650 Da. The analyses were run on an Acquity UPLC BEH C18 column (50 × 2.1 mm ID, particle size 1.7 μm) with a VanGuard BEH C18 pre-column (5 × 2.1 mm ID, particle size 1.7 μm), using 10 mM NH4OAc in H2O at pH 5 adjusted with AcOH (A) and 10 mM NH4OAc in CH3CN/H2O (95:5) at pH 5 (B) as the mobile phase. The values are the mean of at least two independent experiments performed in two technical replicates.
row,Compound,solubility at 1 h [µM]
1,"CN1CCC(c2cn(C(=O)NCCCCc3ccccc3)c(=O)o2)CC1 [Compound 12y, 5-(1-Methyl-4-piperidyl)-2-oxo-N-(4-phenylbutyl)oxazole-3-carboxamide]",248

# Test system: rat AC (rAC)
# Test: not given
# Conditions: cited from earlier work
row,Compound,IC50 [nM]
1,CCCCCCNC(=O)n1cc(F)c(=O)n(C(=O)OCC(C)C)c1=O [Compound 1c],16
2,CCCCCCNC(=O)n1cc(F)c(=O)[nH]c1=O [carmofur],29
3,CCCCCCNC(=O)n1cc(C(F)(F)F)c(=O)[nH]c1=O [Compound 1b],12
4,CCCCCCNC(=O)n1cc(Cl)c(=O)[nH]c1=O [Compound 1a],67

# Test system: hAC
# Test: not given
# Conditions: cited from earlier work
row,Compound,IC50 [nM]
1,O=C(NCc1ccccc1)n1cnc2ccccc21 [Compound 3c],22.5
2,O=C(NCCCCc1ccccc1)n1c(=O)oc2ccccc21 [Compound 4a],64
3,CC(C)CNC(=O)n1c(=O)oc2cc(C3CCN(C)CC3)ccc21 [Compound 4d],166
4,Cc1ccc(CNC(=O)n2cnc3ccccc32)cc1 [Compound 3d],14.8
5,COc1nc2ccccc2n1C(=O)NCCCCc1ccccc1 [Compound 3b],13.9
6,O=C(NCCCCc1ccccc1)n1cnc2ccccc21 [Compound 3a],2.5
7,O=C(NCCCCc1ccccc1)n1c(=O)oc2cc(-c3ccc(F)cc3)ccc21 [Compound 4b],79
8,O=C(NCCCCc1ccccc1)n1c(=O)oc2cc(Cl)ccc21 [Compound 4c],33

# Target: T1, hAC (Homo sapiens, UniProt Q13510)
# T1 sequence (Q13510 22-395): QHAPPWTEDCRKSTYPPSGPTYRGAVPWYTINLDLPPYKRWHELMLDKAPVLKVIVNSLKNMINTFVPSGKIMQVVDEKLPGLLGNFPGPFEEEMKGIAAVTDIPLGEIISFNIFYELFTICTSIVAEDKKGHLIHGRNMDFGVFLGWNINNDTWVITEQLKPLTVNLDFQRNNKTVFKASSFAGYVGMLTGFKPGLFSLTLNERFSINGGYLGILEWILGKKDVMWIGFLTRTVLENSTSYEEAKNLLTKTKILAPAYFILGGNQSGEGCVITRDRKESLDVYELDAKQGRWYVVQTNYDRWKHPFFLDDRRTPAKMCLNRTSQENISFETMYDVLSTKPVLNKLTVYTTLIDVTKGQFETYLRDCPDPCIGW
# Test: Fluorogenic hAC assay (hAC-enriched HEK293 lysate)
# Assay type: biochemical
# Design: expressed in transfected cells; lysosome-enriched lysate
# Conditions: concentrations tested 1 and 10 μM where stated
# From the text: HEK293 cells stably expressing hAC (HEK293-hAC) were generated in our laboratory using a protocol, as previously described.[30] Briefly, hAC (variant 1 coding sequence, NM_177924) cDNA was purchased from Open Biosystems (clone ID 3923451) and subcloned in the mammalian expression vector pCDNA3.1, containing the neomycin resistance gene. HEK293 cells were transfected with the hAC-pCDNA3.1 construct using a JetPEI reagent (Polyplus Transfection, Illkirch-Graffenstaden, France) and following the manufacturer’s instructions. A stable cell line was generated by selection with G418 (1 mg/mL), and cell clones were derived by limited dilution plating. HEK293-hAC were grown in Dulbecco’s modified Eagle medium (DMEM) containing 10% fetal bovine serum (FBS), 1% glutamine, 1 mM sodium pyruvate, and 500 μg/mL G418. Cells were harvested and pellets were stored at −80 °C until lysosomal-enriched lysate preparation. Cells were suspended in 20 mM Tris HCl (pH 7.5) with 0.32 M sucrose, sonicated, and centrifuged at 800 × g for 30 min at 4 °C. Supernatants were then centrifuged at 12 000 × g for 30 min at 4 °C. Pellets were re-suspended in PBS (pH 7.4) and subjected to three freeze–thaw cycles at −80 °C. The suspension was finally centrifuged at 105 000 × g for 1 h at 4 °C, and protein concentration was measured in the supernatant with a bicinchoninic acid based protein assay. This hAC-enriched preparation allowed us to further optimize the enzymatic assay and to use small amounts of lysate (2 μg/well) at the 5 μM substrate (Rbm14-12) around its KM (KM = 5.0 μM).
# The assay was performed in Optiplate 96-wells black plates, with each reaction well containing a mixture of 25 mM NaOAc buffer (pH 4.5) and a fixed amount of protein (2 μg) in a volume of 85 μL. After 10 min of pre-incubation with the test compounds (diluted 20× from DMSO stock solutions at different concentrations), the fluorogenic probe was added (diluted 40× from EtOH stock solution, final concentration 5 μM). After 3 h incubation at 37 °C, reactions were stopped with 50 μL of MeOH and 100 μL of a 2.5 mg/mL NaIO4 fresh solution in 100 mM glycine/NaOH buffer (pH 10.6). The plates were further incubated for 2 h at 37 °C in the dark and fluorescence intensities were measured at excitation/emission wavelengths of 355/460 nm. Negative control samples consisted of the same incubation mixture in the absence of protein-enriched extracts. Data were plotted as a function of compound concentrations. IC50 values were calculated by nonlinear regression analysis using GraphPad Prism 5 (GraphPad Software Inc., CA, USA) applying a standard slope curve fitting. The reported IC50 values are the mean of at least three independent experiments performed in three technical replicates.
row,Compound,"hAC inhibition, result in words"
1,"CC(C)CNC(=O)n1cc(-c2ccc(F)c(C3CCN(C)CC3)c2)oc1=O [Compound 25f, 5-[4-Fluoro-3-(1-methyl-4-piperidyl)phenyl]-N-isobutyl-2-oxo-oxazole-3-carboxamide]",complete loss in potency
2,"COCCCNC(=O)n1cc(-c2ccccc2)oc1=O [Compound 12d, N-(3-Methoxypropyl)-2-oxo-5-phenyl-oxazole-3-carboxamide]",complete loss in potency
3,"CCC(C)NC(=O)n1cc(-c2ccccc2)oc1=O (racemic) [Compound 12f, (±) 2-Oxo-5-phenyl-N-s-butyl-oxazole-3-carboxamide]",not active up to 10 μM
4,"CC(C)CNC(=O)n1cc(-c2ccc(F)cc2C2CCN(C)CC2)oc1=O [Compound 32c, 5-[4-Fluoro-2-(1-methyl-4-piperidyl)phenyl]-N-isobutyl-2-oxo-oxazole-3-carboxamide Hydrochloride]",complete loss in potency

# Same assay, conditions: fluorogenic substrate Rbm14-12 5 μM, pH 4.5; mean of at least three experiments
row,Compound,hAC IC50 (μM)±SD
1,"O=C(NCCCCc1ccccc1)n1cc(-c2ccc(F)cc2)oc1=O [Compound 12j, 5-(4-Fluorophenyl)-2-oxo-N-(4-phenylbutyl)oxazole-3-carboxamide]",submicromolar

# Same assay, conditions: fluorogenic substrate Rbm14-12 5 μM, pH 4.5; mean of at least three experiments; read-out: hAC IC50 (μM)±SD
row,Compound,IC50 [µM]
1,"O=C(NCCCCc1ccccc1)n1c(-c2ccccc2)coc1=O [Compound 8a, 2-Oxo-4-phenyl-N-(4-phenylbutyl)oxazole-3-carboxamide]",0.007 ± 0.001

# Same assay, conditions: supplementary CSV
row,Compound,"hAC, IC50 (micromicrolar)"
1,"O=C(NCCCCc1ccccc1)N1C[C@H](c2ccccc2)OC1=O [Compound 18a, (5S)-(−)-2-Oxo-5-phenyl-N-(4-phenylbutyl)oxazolidine-3-carboxamide]",not active up to 10 micromolar
2,"O=C(NCCCCc1ccccc1)N1C(=O)OC[C@@H]1c1ccccc1 [Compound 15a, (4S)-(+)-2-Oxo-4-phenyl-N-(4-phenylbutyl)oxazolidine-3-carboxamide]",not active up to 10 micromolar
3,"O=C(NCCCCc1ccccc1)N1C(=O)OC[C@H]1c1ccccc1 [Compound 15b, (4R)-(−)-2-Oxo-4-phenyl-N-(4-phenylbutyl)oxazolidine-3-carboxamide]",not active up to 10 micromolar
4,"CN1CCC(c2cc(F)ccc2-c2c[nH]c(=O)o2)CC1 [Compound 31c, 5-[4-Fluoro-2-(1-methyl-4-piperidyl)phenyl]-3H-oxazol-2-one]",not active up to 10 micromolar
5,"O=C(Nc1ccccc1)n1cc(-c2ccccc2)oc1=O [Compound 12g, 2-Oxo-N,5-diphenyl-oxazole-3-carboxamide]",not active up to 10 micromolar
6,"CC(C)CNC(=O)n1cc(-c2ccc(F)c(C3CCN(C)CC3)c2)oc1=O [Compound 25f, 5-[4-Fluoro-3-(1-methyl-4-piperidyl)phenyl]-N-isobutyl-2-oxo-oxazole-3-carboxamide]",not active up to 10 micromolar
7,"O=C(OCCCCc1ccccc1)n1cc(-c2ccccc2)oc1=O [Compound 13b, 4-Phenylbutyl-2-oxo-5-phenyl-oxazole-3-carboxylate]",not active up to 10 micromolar
8,"CN(CCCCc1ccccc1)C(=O)n1cc(-c2ccccc2)oc1=O [Compound 13a, N-Methyl-2-oxo-5-phenyl-N-(4-phenylbutyl)oxazole-3-carboxamide]",not active up to 10 micromolar
9,"COCCCNC(=O)n1cc(-c2ccccc2)oc1=O [Compound 12d, N-(3-Methoxypropyl)-2-oxo-5-phenyl-oxazole-3-carboxamide]",not active up to 10 micromolar
10,"CCC(C)NC(=O)n1cc(-c2ccccc2)oc1=O (racemic) [Compound 12f, (±) 2-Oxo-5-phenyl-N-s-butyl-oxazole-3-carboxamide]",not active up to 10 micromolar
11,"CC(C)CNC(=O)n1cc(-c2ccc(F)cc2C2CCN(C)CC2)oc1=O [Compound 32c, 5-[4-Fluoro-2-(1-methyl-4-piperidyl)phenyl]-N-isobutyl-2-oxo-oxazole-3-carboxamide Hydrochloride]",not active up to 10 micromolar
12,"O=C(CCCCCc1ccccc1)n1cc(-c2ccccc2)oc1=O [Compound 13c, 5-Phenyl-3-(6-phenylhexanoyl)oxazol-2-one]",not active up to 10 micromolar
13,"O=c1[nH]cc(-c2ccccc2)o1 [Compound 11a, 5-Phenyl-3H-oxazol-2-one]",not active up to 10 micromolar
14,"O=C(NCCCCc1ccccc1)N1C[C@@H](c2ccccc2)OC1=O [Compound 18b, (5R)-(+)-2-Oxo-5-phenyl-N-(4-phenylbutyl)oxazolidine-3-carboxamide]",not active up to 10 micromolar

# Target: T1, hAC
# Test: Michaelis–Menten analysis of hAC
# Assay type: biochemical
# Design: expressed in transfected cells; lysosome-enriched lysate
# Conditions: 12a 25 nM
# Experimental: Assay conditions for the kinetic studies were the same as those described for the fluorogenic hAC assay. The enzyme-enriched lysate (2 μg) was incubated with the following concentrations of substrate Rbm14-12: 0.25, 0.5, 1, 2.5, 5, 10, 12.5, 15 μM. Compound 12a was used at a final concentration of 25 and 100 nM. Initial velocities (V0) were determined and automatically fitted to the Michaelis–Menten equation to obtain kinetic parameters (KM and Vmax). The graph is representative of two independent experiments, each performed in three technical replicates. Graphs and data analysis were performed using GraphPad Prism 5 software (GraphPad Software Inc., CA, USA).
row,Compound,hAC Vmax [M/h]
1,"O=C(NCCCCc1ccccc1)n1cc(-c2ccccc2)oc1=O [Compound 12a, 2-Oxo-5-phenyl-N-(4-phenylbutyl)oxazole-3-carboxamide]",18201

# Same assay, conditions: 12a 100 nM
row,Compound,hAC Vmax [M/h]
1,"O=C(NCCCCc1ccccc1)n1cc(-c2ccccc2)oc1=O [Compound 12a, 2-Oxo-5-phenyl-N-(4-phenylbutyl)oxazole-3-carboxamide]",12016

# Same assay, conditions: hAC-enriched lysates, in words
Compound,effect on Michaelis–Menten constant (KM),effect on maximal catalytic velocity of AC (Vmax)
"O=C(NCCCCc1ccccc1)n1cc(-c2ccccc2)oc1=O [Compound 12a, 2-Oxo-5-phenyl-N-(4-phenylbutyl)oxazole-3-carboxamide]",without influencing,concentration-dependent reduction
